Measured values taken from patent US20210278408A1, “METHODS OF TREATMENT OF CANCER WITH SUBSTITUTED PYRROLE AND PYRAZOLE COMPOUNDS AND DIAGNOSIS OF CANCERS SUSCEPTIBLE TO TREATMENT WITH SUBSTITUTED PYRROLE AND PYRAZOLE COMPOUNDS” (Bantam Pharmaceutical, LLC, priority 2018, published 2021).
Read-outs that look alike come from different tables or passages of the source.

Test system: 407 cancer cell lines
Assay: Cell viability of cancer cell lines (IC50), CellTiter-Glo Viability Assay, 96 h
Format: cell-based
Details: Homo sapiens, read-out: Absolute IC50
Method: Viability was determined by using the 50% inhibitory concentration (IC50) as determined with the CellTiter-Glo® Viability Assay (Promega).
Experiments were initiated by first thawing and equilibrating the CellTiter-Glo® Buffer to room temperature. The lyophilized CellTiter-Glo® Substrate was also equilibrated to room temperature. The lyophilized substrate was reconstituted with the CellTiter-Glo® buffer to form the CellTiter-Glo® Reagent.
Cells were harvested during the logarithmic growth period, counted, and the cell concentration adjusted to 4.44×10^4 cells/mL using culture medium.
Cells were allowed to grow overnight and the following day, the TO reading was obtained by adding 10 μL culture medium to each well of Plate A. The plate was allowed to equilibrate at room temperature for thirty minutes, after which 50 μL CellTiter-Glo® reagent was added to each well. The contents were mixed for 5 min on an orbital shaker to induce cell lysis. Plates were incubated for 20 minutes to stabilize the luminescent signal and the TO luminescence recorded.
Test plate B was incubated for 96 h in the humidified incubator at 37° C. with 5% CO2.
Following the incubation, the plate was equilibrated at room temperature for thirty minutes. CellTiter-Glo® (50 μL) was added to each well of the plate and contents mixed for five minutes on an orbital shaker to induce cell lysis. The luminescent signal was allowed to stabilize at room temperature for 20 minutes and the luminescence recorded.
IC50 (EC50) was calculated using a dose-response curve, fitted using a nonlinear regression model with a sigmoidal dose response. Survival rate was calculated using the formula:
The Surviving rate (%)=(LumTest article−LumMedium control)/(LumNon-treated−LumMedium control)×100%.
Absolute IC50 (EC50) was calculated according to the dose-response curve generated by the statistical software (GraphPad Prism 5.0).

What does the source list for `Cc1nn(-c2nc(-c3ccc(C(F)(F)F)cc3)c(SC(C)C)s2)c(C(=O)O)c1-c1cccc(F)c1` [Compound A197, 4-(3-fluorophenyl)-1-(5-(isopropylthio)-4-(4-(trifluoromethyl)phenyl)thiazol-2-yl)-3-methyl-1H-pyrazole-5-carboxylic acid]?
IC50 (DMS-79, DMS 79): > 30000 nM; IC50 (DMS-114, 96 h, DMS 114 cells, 96 h): > 30000 nM; IC50 (DOHH-2, 96 h, DOHH-2 cells, 96 h): 310 nM; IC50 (DU-145, 96 h, DU 145, 96 h): 850 nM; IC50 (DU-4475, DU4475): 320 nM; IC50 (DV-90, 96 h, DV-90 cells, 96 h): > 30000 nM; IC50 (Daoy, 96 h, Daoy cells, 96 h): > 30000 nM; IC50 (Daudi, 96 h, Daudi cells, 96 h): 810 nM; IC50 (Detroit 562, 96 h, Detroit 562 cells, 96 h): > 30000 nM; IC50 (DoTc2-4510, 96 h, DoTc2 4510 cells, 96 h): > 30000 nM; IC50 (EBC-1, 96 h): > 30000 nM; IC50 (EJM, 96 h, EJM cells, 96 h): 3000 nM; IC50 (EOL1, EOL-1): 740 nM; IC50 (ES-2, 96 h, ES-2 cells, 96 h): > 30000 nM; IC50 (FTC-133, FTC-133): 840 nM; IC50 (FaDu, 96 h, FaDu, 96 h): 380 nM; IC50 (G292, 96 h, G-292 clone A141B1 cells, 96 h): 1860 nM; IC50 (GTL 16, 96 h, GTL-16 cells, 96 h): > 30000 nM; IC50 (Granta-519, GRANTA-519): 1000 nM; IC50 (HCC38, HCC38): > 30000 nM; IC50 (HCC78, 96 h, HCC-78 cells, 96 h): 410 nM; IC50 (HCC827, 96 h, HCC827 cells, 96 h): > 30000 nM; IC50 (HCC1187, 96 h, HCC1187 cells, 96 h): > 30000 nM; IC50 (HCC1428, HCC1428): > 30000 nM; IC50 (HCC1569, HCC1569): > 30000 nM; IC50 (HCC1806, 96 h, HCC1806 cells, 96 h): > 30000 nM; IC50 (HCC1937, HCC1937): > 30000 nM; IC50 (HCC1954, HCC1954): > 30000 nM; IC50 (HCC2218, 96 h): > 30000 nM; IC50 (HCC2935, HCC2935): > 30000 nM; IC50 (HCC4006, 96 h): 460 nM; IC50 (HCCLM3, 96 h, HCCLM3 cells, 96 h): > 30000 nM; IC50 (HCT-8, HCT-8): 770 nM; IC50 (HCT-15, HCT-15): 300 nM; IC50 (HCT-116, HCT-116): 920 nM; IC50 (HEC-1-A, 96 h, HEC-1-A cells, 96 h): > 30000 nM; IC50 (HEC-1B, 96 h, HEC-1-B cells, 96 h): 550 nM; IC50 (HEL 92.1.7, HEL 92.1.7): 380 nM; IC50 (HGC-27, 96 h, HGC-27 cells, 96 h): 510 nM; IC50 (HL-60, HL-60): 990 nM; IC50 (HLE, 96 h, HLE cells, 96 h): > 30000 nM; IC50 (HOS, 96 h, HOS cells, 96 h): > 30000 nM; IC50 (HPAC): 460 nM; IC50 (HT55, HT-55): > 30000 nM; IC50 (HT-3, 96 h, HT-3 cells, 96 h): > 30000 nM; IC50 (HT-29, HT-29): 1270 nM; IC50 (HT-1080, 96 h): 1040 nM; IC50 (HT-1376, HT-1376): > 30000 nM; IC50 (HeLa 229, 96 h, HeLa 229 cells, 96 h): > 30000 nM; IC50 (HeLa, 96 h, HeLa cells, 96 h): 1740 nM; IC50 (Hep3B): > 30000 nM; IC50 (HepG2, Hep G2): > 30000 nM; IC50 (HuCCT-1, 96 h, HuCCT1, 96 h): > 30000 nM; IC50 (HuH-1, HUH-1): > 30000 nM; IC50 (HuT78, HuT 78): 630 nM; IC50 (HuTu80, Hutu 80): 860 nM; IC50 (Huh-7, 96 h, HUH-7 cells, 96 h): 1050 nM; IC50 (IMR-32, 96 h, IMR-32 cells, 96 h): 800 nM; IC50 (Ishikawa, 96 h, Ishikawa, 96 h): 290 nM; IC50 (J82, 96 h, J82 cells, 96 h): 1110 nM; IC50 (JEG-3, 96 h, JEG-3 cells, 96 h): 1080 nM; IC50 (JIMT-1, 96 h, JIMT-1 cells, 96 h): > 30000 nM; IC50 (JJN-3, 96 h, JJN-3 cells, 96 h): 1340 nM; IC50 (JVM-2, JVM-2): 730 nM; IC50 (JVM-3, JVM-3): 270 nM; IC50 (JeKo-1, 96 h, JeKo-1 cells, 96 h): 790 nM; IC50 (Jurkat, Jurkat clone E6-1): 640 nM; IC50 (K562, K-562): 570 nM; IC50 (KARPAS-299, 96 h, KARPAS-299 cells, 96 h): > 30000 nM; IC50 (KARPAS-422, KARPAS-422): 780 nM; IC50 (KATO III, 96 h, KATO III, 96 h): > 30000 nM; IC50 (KG-1, KG-1): 1050 nM; IC50 (KHOS/NP, 96 h, KHOS/NP cells, 96 h): > 30000 nM; IC50 (KM-H2, 96 h, KMH-2 cells, 96 h): 1440 nM; IC50 (KMS-11, KMS-11): 630 nM; IC50 (KP-4, 96 h, KP4 cells, 96 h): 530 nM; IC50 (KYSE-70, KYSE-70): 460 nM; IC50 (KYSE-150, KYSE-150): 750 nM; IC50 (KYSE-270, KYSE-270): 4780 nM; IC50 (KYSE-410, 96 h, KYSE-410 cells, 96 h): > 301000 nM; IC50 (Kasumi 1, Kasumi-1): 1090 nM; IC50 (L-363, L-363): 880 nM; IC50 (LN-18, 96 h, LN-18 cells, 96 h): 520 nM; IC50 (LN-229, 96 h, LN-229 cells, 96 h): > 30000 nM; IC50 (LNCaP-Clone-FGC, 96 h, LNCaP clone FGC, 96 h): 180 nM; IC50 (LP-1, LP-1): 490 nM; IC50 (LS180, LS 180): > 30000 nM; IC50 (LS-123, 96 h, LS123 cells, 96 h): > 30000 nM; IC50 (LS-411N, LS411N): 700 nM; IC50 (LS-513, 96 h, LS513 cells, 96 h): 700 nM; IC50 (LS-1034, 96 h, LS1034 cells, 96 h): > 30000 nM; IC50 (LoVo): > 30000 nM; IC50 (MCF7, MCF7): > 30000 nM; IC50 (MDA-MB-231, MDA-MB-231): > 30000 nM; IC50 (MDA-MB-415, MDA-MB-415): > 30000 nM; IC50 (MDA-MB-436, 96 h): > 30000 nM; IC50 (MDA-MB-453, MDA-MB-453): > 30000 nM; IC50 (MDA-MB-468, 96 h, MDA-MB-468 cells, 96 h): 520 nM; IC50 (ME-180, 96 h, ME-180 cells, 96 h): 550 nM; IC50 (MEG-01, MEG-01): 1560 nM; IC50 (MES-SA, 96 h, MES-SA cells, 96 h): 490 nM; IC50 (MES-SA/Dx5, 96 h, MES-SA/DX5 cells, 96 h): 340 nM; IC50 (MFE-296, 96 h, MFE-296 cells, 96 h): > 30000 nM; IC50 (MHCC97H, MHCC97-H): 3250 nM; IC50 (MIA PaCa-2, MIA PaCa-2): 2890 nM; IC50 (MKN-1, 96 h, MKN1 cells, 96 h): 2930 nM; IC50 (MKN-45, 96 h, MKN45, 96 h): > 30000 nM; IC50 (MKN-74, 96 h, MKN74 cells, 96 h): > 30000 nM; IC50 (ML-2, ML-2): 460 nM; IC50 (MM1.S, MM.1S): > 30000 nM; IC50 (MOLM-13, 96 h, MOLM-13 cells, 96 h): 870 nM; IC50 (MOLP-8, 96 h, MOLP8 cells, 96 h): 990 nM; IC50 (MOLT-4, Molt-4): 620 nM; IC50 (MSTO-211H, 211 h, MsTo 211H): 550 nM; IC50 (MV4-11, 96 h, MV-4-11 cells, 96 h): 320 nM; IC50 (MX1, MX-1): > 30000 nM; IC50 (NALM-6, NALM-6): 700 nM; IC50 (NB-4, 96 h, NB4 cells, 96 h): 110 nM; IC50 (NCI-H23, 96 h, NCI-H23 cells, 96 h): 760 nM; IC50 (NCI-H69, 96 h, NCI-H69 cells, 96 h): > 30000 nM; IC50 (NCI-H82, 96 h): 760 nM; IC50 (NCI-H146, 96 h, NCI-H146 cells, 96 h): > 30000 nM; IC50 (NCI-H187, NCI-H187): 330 nM; IC50 (NCI-H209, 96 h, NCI-H209 cells, 96 h): > 30000 nM; IC50 (NCI-H226, NCI-H226): 2080 nM
